# According to PubChem BioAssay (NCI):
# “And” between values parts separate entries of the source, which are not always exact repeats. Equal entries are not always repeated.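 Method: 48-hour compound exposure of cells in 96-well plates, five concentrations, linear interpolation of endpoints. Here, GI50 denotes the concentration required for 50% inhibition of growth. TGI: total growth inhibition.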
# How the values were obtained:
# Experiment in all cases: NCI tumour cell line growth inhibition, 48 h
# HL-60(TB) leukemia = system: HL-60(TB) leukemia
# BT-549 breast = system: BT-549 breast
# MOLT-4 leukemia = system: MOLT-4 leukemia
# RPMI-8226 leukemia = system: RPMI-8226 leukemia
# IGROV1 ovarian = system: IGROV1 ovarian
# SF-539 CNS = system: SF-539 CNS
# HCT-15 colon = system: HCT-15 colon
# HCC-2998 colon = system: HCC-2998 colon
# HOP-62 NSCLC = system: HOP-62 NSCLC
# SK-MEL-2 melanoma = system: SK-MEL-2 melanoma
Structure (SMILES),GI50 (HL-60(TB) leukemia),TGI (HL-60(TB) leukemia),GI50 (BT-549 breast),TGI (BT-549 breast),GI50 (MOLT-4 leukemia),TGI (MOLT-4 leukemia),GI50 (RPMI-8226 leukemia),TGI (RPMI-8226 leukemia),GI50 (IGROV1 ovarian),TGI (IGROV1 ovarian),GI50 (SF-539 CNS),TGI (SF-539 CNS),GI50 (HCT-15 colon),TGI (HCT-15 colon),GI50 (HCC-2998 colon),TGI (HCC-2998 colon),GI50 (HOP-62 NSCLC),TGI (HOP-62 NSCLC),GI50 (SK-MEL-2 melanoma),TGI (SK-MEL-2 melanoma)
CCCCCCCCCCN=C(c1ccc(N(C)C)cc1)c1ccc(N(C)C)cc1,0.954 µM,18.9 µM,0.857 µM,52.9 µM,0.416 µM,30.8 µM,0.673 µM,16.3 µM,0.917 µM,> 100 µM,0.832 µM,5.47 µM,0.365 µM,> 100 µM,5.07 µM,> 88.6 µM,1.06 µM,31.8 µM,0.492 µM,33.2 µM
Cc1ccc2c(c1)Sc1ccc(N=NN(C)C)cc1N2C,–,> 100 µM,–,> 100 µM,–,> 100 µM,–,> 100 µM,–,> 100 µM,–,–,–,> 100 µM,–,> 100 µM,–,> 100 µM,–,> 100 µM
Cc1ccccc1Nc1nc2c(s1)C(=O)c1ccccc1C2=O,–,> 100 µM,–,6.57 µM,–,> 24.3 µM,–,18 µM,–,26.4 µM,–,12.7 µM,–,10.7 µM,–,32.2 µM,–,30.2 µM,–,31.5 µM
O=S1(=O)NCCCN1CCNc1nccc(-c2c(-c3cccc(O)c3)nc3sccn23)n1,23 µM,60 µM,24.3 µM,> 100 µM,22.9 µM,> 77.6 µM,35.9 µM,> 87.5 µM,11.3 µM,64.4 µM,33.5 µM,> 100 µM,43.6 µM,> 100 µM,31.3 µM,> 92 µM,42.3 µM,> 100 µM,2.57 µM,9.66 µM
O=S(=O)(CCOCc1ccc(-c2ccc3ncnc(Nc4ccc(OCc5cccc(F)c5)c(Cl)c4)c3c2)o1)c1ccccc1,> 25 µM,> 25 µM,> 25 µM,> 25 µM,> 25 µM,> 25 µM,> 25 µM,> 25 µM,> 25 µM,> 25 µM,> 25 µM,> 25 µM,> 25 µM,> 25 µM,> 25 µM,> 25 µM,> 25 µM,> 25 µM,> 25 µM,> 25 µM
Cn1cc(-c2csc(-c3cn(C)c4ccccc34)n2)c2cnccc21,1.94 µM,4.09 µM,1.68 µM,3.09 µM,–,–,1.76 µM,4.06 µM,1.61 µM,3.24 µM,1.75 µM,3.2 µM,1.51 µM,3.2 µM,1.26 µM,2.6 µM,1.67 µM,3.85 µM,2 µM,3.7 µM
CC1CCCc2c1nn(C(=O)/C=C(\N)c1ccccc1)c2N (stereo not drawn),5.96 µM,44.3 µM,24.3 µM,93.7 µM,5.16 µM,84.9 µM,9.13 µM,> 100 µM,12.5 µM,> 100 µM,17.7 µM,> 100 µM,5.85 µM,> 100 µM,14.6 µM,85.5 µM,8.49 µM,> 100 µM,34.8 µM,> 100 µM
O=C1C(Cl)=C(Nc2ccccc2)C(=O)c2ccccc21,1.77 µM,5.31 µM,1.7 µM,3.09 µM,3.34 µM,> 100 µM,2.28 µM,6.84 µM,1.75 µM,3.27 µM,5.41 µM,17.5 µM,1.26 µM,2.92 µM,2.15 µM,4.29 µM,12.8 µM,26.8 µM,1.87 µM,3.69 µM
Cn1c([N+](=O)[O-])cnc1/C=C1\Oc2cc(Cl)ccc2C1=O,0.421 µM,5.04 µM,0.996 µM,4.9 µM,0.212 µM,2.32 µM,1.73 µM,> 20.5 µM,0.783 µM,> 20.2 µM,1.71 µM,4.81 µM,0.267 µM,1.05 µM,2.04 µM,4.81 µM,1.88 µM,6.07 µM,0.436 µM,2 µM
Cc1nc(Nc2n[nH]c3c2CN(C(=O)N[C@H](CN(C)C)c2ccccc2)C3(C)C)c2sccc2n1,0.0189 µM and 0.0564 µM,2.03 µM and 3.43 µM,0.393 µM and 0.189 µM,3.63 µM and 3.12 µM,0.092 µM and 0.276 µM,9.74 µM and 7.04 µM,0.148 µM and 0.107 µM,> 4.74 µM and 5.69 µM,0.0127 µM and 0.0247 µM,> 3.53 µM and 16.7 µM,0.382 µM and 0.149 µM,3.68 µM and 2.98 µM,0.687 µM and 1.26 µM,> 10 µM and 68.5 µM,0.0135 µM and 0.0453 µM,2.22 µM and 3.98 µM,0.0724 µM and 0.129 µM,5.12 µM and 7.06 µM,0.0211 µM and 0.0149 µM,1.01 µM and 2.8 µM
CC(=O)NNc1nc(C)c(C(=O)NNC(=O)C(=O)Nc2nc3ccc([N+](=O)[O-])cc3s2)s1,–,79.9 µM,–,> 100 µM,–,> 100 µM,–,> 80.5 µM,–,> 83.7 µM,–,> 100 µM,–,> 100 µM,–,> 100 µM,–,> 100 µM,–,> 100 µM
COc1ccc(-c2nnc(N3CCN(C(=O)CN4CCN(c5ccc(OC)cc5)CC4)CC3)nc2-c2ccc(OC)cc2)cc1,1.88 µM,6.5 µM,3.53 µM,24 µM,1.63 µM,3.8 µM,2.37 µM,6.5 µM,6.7 µM,> 78.6 µM,14.1 µM,33.2 µM,6.96 µM,34.6 µM,18.8 µM,47.2 µM,16.5 µM,44 µM,10.2 µM,44.1 µM
CCN(CC)CCNC(=O)c1c(C)[nH]c(/C=C2\C(=O)Nc3ccc(F)cc32)c1C,0.353 µM and 2.42 µM and 0.847 µM,4.34 µM and 6.34 µM and 4.13 µM,4.84 µM and 3.32 µM and 3.67 µM,> 10 µM and 6.12 µM and 12.6 µM,1.1 µM and 2.73 µM and 1.7 µM,> 10 µM and 20 µM and 9.05 µM,2.93 µM and 4.58 µM and 1.46 µM,> 10 µM and 10.9 µM and 5.31 µM,1.48 µM and 2.63 µM and 2.05 µM,> 10 µM and 20 µM and 15.9 µM,1.38 µM and 2.36 µM and 1.21 µM,6.7 µM and 5.41 µM and 2.72 µM,1.22 µM and 1.23 µM and 1.13 µM,> 10 µM and 20 µM and 13.3 µM,–,> 10 µM and 7.03 µM and 3.06 µM,5.27 µM and 2.42 µM and 2.64 µM,> 10 µM and 5.94 µM and 15.3 µM,1.38 µM and 2.1 µM and 4.56 µM,9.46 µM and 4.82 µM and 13.2 µM
CCCCCCCCCCCCCCCCCCNC(=O)[C@H]1CSC(c2cccs2)N1 (stereo partly drawn),0.919 µM,2.06 µM,0.983 µM,1.89 µM,0.974 µM,15.7 µM,0.985 µM,2.41 µM,–,–,1.71 µM,7.85 µM,2.08 µM,> 50 µM,1.06 µM,2.31 µM,0.959 µM,1.71 µM,0.957 µM,1.79 µM
c1ccc(Cn2cnc3ccc(-c4nc(-c5ccc6c(c5)ncn6C5CCCCC5)cn5ccnc45)cc32)cc1,2.88 µM,6.65 µM,1.2 µM,2.68 µM,1.67 µM,> 100 µM,1.15 µM,4.5 µM,2.14 µM,> 100 µM,–,–,–,–,1.9 µM,3.41 µM,–,–,2.02 µM,4.85 µM
COc1ccccc1/C=C/C(=O)/C=C/c1ccccc1O,0.323 µM,–,1.39 µM,3.01 µM,0.163 µM,–,0.164 µM,0.401 µM,0.344 µM,1.92 µM,1.46 µM,2.78 µM,0.351 µM,1.64 µM,1.29 µM,2.64 µM,3.06 µM,6.63 µM,–,–
O=C(c1ccc2ccccc2c1)c1c(C(F)(F)F)n([O-])c2ccc(Cl)cc2[n+]1=O,1.59 µM,3.29 µM,1.6 µM,2.99 µM,–,–,0.373 µM,1.66 µM,0.334 µM,1.06 µM,1.58 µM,2.92 µM,1.55 µM,2.94 µM,1.26 µM,2.6 µM,1.86 µM,3.46 µM,1.74 µM,3.2 µM
COc1ccc(CC(C)C(C)Cc2ccc(OC)c(OC)c2)cc1OC (stereo not drawn),> 1400 µM,> 1400 µM,> 1400 µM,> 1400 µM,> 1400 µM,> 1400 µM,96.7 µM,> 1400 µM,800 µM,> 1400 µM,> 1400 µM,> 1400 µM,> 1400 µM,> 1400 µM,–,–,750 µM,> 1400 µM,> 1400 µM,> 1400 µM
CC(=O)N[C@H](C(=O)N[C@@H](CCCNC(=N)N)C(=O)N[C@@H](CCCCN)C(=O)N[C@@H](CCCNC(=N)N)C(=O)N[C@]1(C)CCCCCC/C=C\CCC[C@@](C)(C(=O)N[C@@H](CCCNC(=N)N)C(=O)N[C@@H](CCC(=O)O)C(=O)N[C@@H](CC(C)C)C(=O)N[C@H](C(=O)N[C@@H](CCC(=O)O)C(N)=O)C(C)C)NC(=O)[C@H](CCC(N)=O)NC(=O)[C@H](CC(C)C)NC(=O)[C@H](CC(C)C)NC(=O)[C@H](CCCNC(=N)N)NC(=O)[C@H](CCCNC(=N)N)NC(=O)[C@H](CC(C)C)NC1=O)C(C)C,5.19 µM,18.5 µM,1.44 µM,4.35 µM,8.1 µM,29.4 µM,6.48 µM,20.9 µM,–,–,1.97 µM,15.8 µM,3.02 µM,47.3 µM,4.65 µM,46.6 µM,2.35 µM,22.5 µM,7.59 µM,> 50 µM
